Broadly, the inhibition is how much of the control response was suppressed.

Inhibition data for 28 compounds are collected here from patent publication US6150385A, “1,3,4-thiadiazoles useful for the treatment of CMV infections” (Pharmacia & Upjohn Company, priority 1999, dated 2000).

This assay deals with T1, HCMV polymerase (Human cytomegalovirus, UniProt P08546).
T1 construct: made in house; host or cells: SF-9 insect cells infected with recombinant baculovirus
T1 sequence (P08546 whole entry): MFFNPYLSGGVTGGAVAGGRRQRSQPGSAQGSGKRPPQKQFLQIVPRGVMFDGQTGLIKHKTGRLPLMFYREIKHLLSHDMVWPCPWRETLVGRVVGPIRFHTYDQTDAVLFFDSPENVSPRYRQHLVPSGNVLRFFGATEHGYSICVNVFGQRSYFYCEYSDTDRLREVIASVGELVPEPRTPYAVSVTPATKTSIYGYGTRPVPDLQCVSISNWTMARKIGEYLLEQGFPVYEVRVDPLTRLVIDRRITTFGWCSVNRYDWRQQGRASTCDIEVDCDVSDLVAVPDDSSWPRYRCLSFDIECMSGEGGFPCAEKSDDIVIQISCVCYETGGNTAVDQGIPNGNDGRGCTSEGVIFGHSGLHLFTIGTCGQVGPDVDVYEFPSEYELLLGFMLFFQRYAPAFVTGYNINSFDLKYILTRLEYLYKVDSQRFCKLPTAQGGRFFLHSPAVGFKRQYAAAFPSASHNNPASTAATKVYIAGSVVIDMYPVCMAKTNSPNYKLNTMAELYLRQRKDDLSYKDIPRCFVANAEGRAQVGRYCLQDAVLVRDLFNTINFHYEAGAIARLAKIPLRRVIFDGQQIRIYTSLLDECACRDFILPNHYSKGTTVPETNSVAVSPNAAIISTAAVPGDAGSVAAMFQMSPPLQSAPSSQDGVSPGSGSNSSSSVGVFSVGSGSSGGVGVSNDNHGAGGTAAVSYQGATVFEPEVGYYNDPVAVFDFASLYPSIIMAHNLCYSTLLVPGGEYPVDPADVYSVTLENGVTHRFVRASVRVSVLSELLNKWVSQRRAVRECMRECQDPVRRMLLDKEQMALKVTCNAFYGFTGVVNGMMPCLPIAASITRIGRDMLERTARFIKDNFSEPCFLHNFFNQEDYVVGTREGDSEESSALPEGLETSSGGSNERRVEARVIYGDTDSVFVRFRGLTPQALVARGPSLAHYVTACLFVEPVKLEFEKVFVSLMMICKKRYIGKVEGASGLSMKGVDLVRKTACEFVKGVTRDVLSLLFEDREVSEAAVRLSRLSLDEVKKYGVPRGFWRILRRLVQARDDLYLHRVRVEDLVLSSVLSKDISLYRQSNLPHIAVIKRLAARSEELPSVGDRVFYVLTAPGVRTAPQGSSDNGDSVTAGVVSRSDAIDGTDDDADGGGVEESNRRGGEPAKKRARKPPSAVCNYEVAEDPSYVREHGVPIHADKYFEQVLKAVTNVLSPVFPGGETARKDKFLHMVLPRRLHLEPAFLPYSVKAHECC
The experiment in a line: HCMV polymerase assay (scintillation proximity assay). Format: biochemical. To be noted: percentage of inhibition at 25 μM concentration in CMV polymerase assay. In outline: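 Values are percent inhibition at 25 μM, measured by scintillation proximity after capture of biotinylated poly(dA)-oligo(dT) (6 nM) extended with 90 nM 3H-dTTP. Recombinant SF-9-derived enzyme reacted 30 min at 25 or 37 °C in HEPES pH 7.5/KCl/MgCl2/BSA buffer, ±2 mM CHAPS, before EDTA termination.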
Background: In a scintillation proximity assay essentially only radioactivity close to the scintillant gives light.
Regarding `CC(C)c1cc(C(C)C)c(C(=O)Nc2nnc(NCCC3CCCN3C)s2)c(C(C)C)c1` (stereo not shown) [compound 109, 2,4,6-triisopropyl-N-(5-{[2-(1-methyl-2-pyrrolidinyl)ethyl]amino]-1,3,4-thiadiazol-2-yl)benzamide], the inhibition at 25 µM was found to be 63.4%.

Consider `CCOC(=O)N1CCC(Nc2nnc(NC(=O)c3c(OCC)ccc4ccccc34)s2)CC1` [compound 86, ethyl 4-[(5-{[(2-ethoxy-1-naphthyl)carbonyl]amino}-1,3,4-thiadiazol-2-yl)amino]tetrahydro-1(2H)-pyridinecarboxylate], for which at 25 µM the inhibition was 67%.

Turning to `CCCCCCCC/C=C/CCCCCCCC(=O)Nc1nnc(NCCN(C)C)s1` [compound 23, (E)-N-(5-{[2-(dimethylamino)ethyl]amino}-1,3,4-thiadiazol-2-yl)-9-octadecenamide], the inhibition at 25 µM turned out to be 97%.

In turn, `CCSCCNc1nnc(NC(=O)c2ccc(Cl)c(Cl)c2)s1` [compound 447, 3,4-dichloro-N-(5-{[2-(ethylsulfanyl)ethyl]amino]-1,3,4-thiadiazol-2-yl)benzamide] returned an inhibition at 25 µM of 21.6%.

Compound `CC(C)c1cc(C(C)C)c(C(=O)Nc2nnc(NCc3cccs3)s2)c(C(C)C)c1` [compound 424, 2,4,6-triisopropyl-N-{5-[(2-thienylmethyl)amino]-1,3,4-thiadiazol-2-yl}benzamide] gave an inhibition at 25 µM of 23.6%.

For the compound `NS(=O)(=O)c1ccc(CCNc2nnc(NC(=O)c3ccc(C(F)(F)F)cc3)s2)cc1` [compound 446, N-(5-{[4-(aminosulfonyl)phenethyl]amino}-1,3,4-thiadiazol-2-yl)-4-(trifluoromethyl)benzamide], the inhibition at 25 µM was 21.8%.

In turn, `CC(C)c1cc(C(C)C)c(C(=O)Nc2nnc(NCCCNC3CCCCC3)s2)c(C(C)C)c1` [compound 36, N-(5-{[3-(cyclohexylamino)propyl]amino}-1,3,4-thiadiazol-2-yl)-2,4,6-triisopropylbenzamide] gave an inhibition at 25 µM of 87.6%.

For the compound `CCOc1ccc2ccccc2c1C(=O)Nc1nnc(NCc2ccco2)s1` [compound 213, 2-ethoxy-N-{5-[(2-furylmethyl)amino]-1,3,4-thiadiazol-2-yl}-1-naphthamide], the inhibition at 25 µM was found to be 44.2%.

In the case of `CC(C)c1cc(C(C)C)c(C(=O)Nc2nnc(NCc3ccco3)s2)c(C(C)C)c1` [compound 442, N-{5-[(2-furylmethyl)amino]-1,3,4-thiadiazol-2-yl}-2,4,6-triisopropylbenzamide], 25 µM produced 22.3% inhibition.

`O=C(Nc1nnc(NCCNc2ccccc2)s1)c1ccc(Cl)c(Cl)c1` [compound 408, N-{5-[(2-anilinoethyl)amino]-1,3,4-thiadiazol-2-yl}-3,4-dichlorobenzamide]: at 25 µM the inhibition was 24.9%.

As for `CC1(C)C2CC[C@@H](CNc3nnc(NC(=O)c4cc(F)cc(F)c4)s3)C1C2` (stereo partly drawn) [compound 389, N-[5-({[(2R)-6,6-dimethylbicyclo[3.1.1]hept-2-yl]methyl}amino)-1,3,4-thiadiazol-2-yl]-3,5-difluorobenzamide], 25 µM produced 26.5% inhibition.

Compound `CC(C)(C)CNc1nnc(NC(=O)c2c(Cl)cccc2Cl)s1` [compound 392, 2,6-dichloro-N-[5-(neopentylamino)-1,3,4-thiadiazol-2-yl]benzamide] registered an inhibition at 25 µM of 26.2%.

Regarding `O=C(/C=C/c1ccccc1Cl)Nc1nnc(NCc2cccs2)s1` [compound 164, (E)-3-(2-chlorophenyl)-N-{5-[(2-thienylmethyl)amino]-1,3,4-thiadiazol-2-yl}-2-propenamide], the inhibition at 25 µM was found to be 51.4%.

`COc1ccccc1C(=O)Nc1nnc(NCC2CCCCC2)s1` [compound 304, N-{5-[(cyclohexylmethyl)amino]-1,3,4-thiadiazol-2-yl}-2-methoxybenzamide] came in with an inhibition at 25 µM of 34.6%.

`O=C(Nc1nnc(NC2CCCCCC2)s1)c1c(Cl)cccc1Cl` [compound 369, 2,6-dichloro-N-[5-(cycloheptylamino)-1,3,4-thiadiazol-2-yl]benzamide] yielded an inhibition at 25 µM of 28.3%.

Regarding `CCCCCCCC/C=C/CCCCCCCC(=O)Nc1nnc(NCCC2CCCN2C)s1` (stereo not shown) [compound 5, (E)-N-(5-{[2-(1-methyl-2-pyrrolidinyl)ethyl]amino}-1,3,4-thiadiazol-2-yl)-9-octadecenamide], at 25 µM the inhibition was 99.9%.

The compound `N#Cc1ccc(C(=O)Nc2nnc(NCCc3ccc(S(N)(=O)=O)cc3)s2)cc1` [compound 335, N-(5-{[4-(aminosulfonyl)phenethyl]amino}-1,3,4-thiadiazol-2-yl)-4-cyanobenzamide] returned an inhibition at 25 µM of 31.7%.

`CCOc1ccc2ccccc2c1C(=O)Nc1nnc(NCCc2ccc(S(N)(=O)=O)cc2)s1` [compound 328, N-(5-{[4-(aminosulfonyl)phenethyl]amino}-1,3,4-thiadiazol-2-yl)-2-ethoxy-1-naphthamide] showed an inhibition at 25 µM of 32.4%.

As to `O=C(Nc1nnc(NCCNc2ccccc2)s1)c1cc2ccccc2s1` [compound 236, N-{5-[(2-anilinoethyl)amino]-1,3,4-thiadiazol-2-yl}-1-benzothiophene-2-carboxamide], the inhibition at 25 µM is 41.6%.

`O=C(Nc1nnc(NCc2ccc(F)cc2)s1)c1c(Cl)cccc1Cl` [compound 144, 2,6-dichloro-N-{5-[(4-fluorobenzyl)amino]-1,3,4-thiadiazol-2-yl}benzamide] returned an inhibition at 25 µM of 55.2%.

In turn, `O=C(/C=C/c1ccccc1)Nc1nnc(NCc2ccc(Cl)c(Cl)c2)s1` [compound 333, (E)-N-{5-[(3,4-dichlorobenzyl)amino]-1,3,4-thiadiazol-2-yl}-3-phenyl-2-propenamide] displayed an inhibition at 25 µM of 31.9%.

On to `O=C(CCCCCl)Nc1nnc(NCCC(c2ccccc2)c2ccccc2)s1` [compound 183, 5-chloro-N-{5-[(3,3-diphenylpropyl)amino]-1,3,4-thiadiazol-2-yl}pentanamide], for which the inhibition at 25 µM was determined as 48.1%.

`CCCCCCCC/C=C/CCCCCCCC(=O)Nc1nnc(NCCCCc2ccccc2)s1` [compound 108, (E)-N-{5-[(4-phenylbutyl)amino]-1,3,4-thiadiazol-2-yl}-9-octadecenamide] returned an inhibition at 25 µM of 63.5%.

`O=C(/C=C/c1ccccc1)Nc1nnc(NCc2ccccn2)s1` [compound 139, (E)-3-phenyl-N-{5-[(2-pyridinylmethyl)amino]-1,3,4-thiadiazol-2-yl}-2-propenamide]: testing at 25 µM gave an inhibition of 56.2%.

`CC(C)c1cc(C(C)C)c(C(=O)Nc2nnc(NCCC(c3ccccc3)c3ccccc3)s2)c(C(C)C)c1` [compound 299, N-{5-[(3,3-diphenylpropyl)amino]-1,3,4-thiadiazol-2-yl}-2,4,6-triisopropylbenzamide] yielded an inhibition at 25 µM of 34.9%.

The compound `CCCCCCCC/C=C/CCCCCCCC(=O)Nc1nnc(NC2CCC2)s1` [compound 199, (E)-N-[5-(cyclobutylamino)-1,3,4-thiadiazol-2-yl]-9-octadecenamide] displayed an inhibition at 25 µM of 46%.

Compound `N#Cc1ccc(C(=O)Nc2nnc(NCC3CCCCC3)s2)cc1` [compound 364, 4-cyano-N-{5-[(cyclohexylmethyl)amino]-1,3,4-thiadiazol-2-yl}benzamide] had an inhibition at 25 µM of 28.7%.

`O=C(Nc1nnc(NCCCCc2ccccc2)s1)c1cc2ccccc2s1` [compound 52, N-{5-[(4-phenylbutyl)amino]-1,3,4-thiadiazol-2-yl}-1-benzothiophen-2-carboxamide]: the inhibition at 25 µM came out at 78.7%.
